The supplement of paper PMC10307832

Legend:
Experiment in all cases: relative viability (nuclei count vs DMSO), 5 days (fraction); higher = more cells survive
Lestaurtinib + Alpelisib = compound: C[C@]12O[C@H](C[C@]1(O)CO)n1c3ccccc3c3c4c(c5c6ccccc6n2c5c31)CNC4=O [Lestaurtinib] + Cc1nc(NC(=O)N2CCC[C@H]2C(N)=O)sc1-c1ccnc(C(C)(C)C(F)(F)F)c1 [Alpelisib] (partner 2 µM)
Outline: (§1)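 Lung cancer cell lines in 1536-well plates got either a single drug or a fixed anchor-drug dose together with five library-drug doses (not always all listed) in √10 steps, by pin tool, on the day after seeding. Nuclei were counted after 5 days, and relative viability is the treated-to-vehicle ratio of nuclei counts. Values are medians of duplicate plates.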

[1] = compound: C1/C(=C\C2=CC=CS2)/C(=O)/C(=C/C3=CC=CS3)/C1 + Nc1nc2[nH]cc(CCc3ccc(C(=O)N[C@@H](CCC(=O)O)C(=O)O)cc3)c2c(=O)[nH]1 [Pemetrexed] (partner 0.2 µM)
Outline: as §1

[2] = compound: C[C@]12O[C@H](C[C@]1(O)CO)n1c3ccccc3c3c4c(c5c6ccccc6n2c5c31)CNC4=O [Lestaurtinib] + Nc1ncn([C@H]2C[C@H](O)[C@@H](CO)O2)c(=O)n1 [Decitabine] (partner 2 µM)
Outline: as §1

[3] = compound: C1/C(=C\C2=CC=CS2)/C(=O)/C(=C/C3=CC=CS3)/C1 + CC(=O)Nc1cccc(-n2c(=O)n(C3CC3)c(=O)c3c(Nc4ccc(I)cc4F)n(C)c(=O)c(C)c32)c1 [Trametinib] (partner 0.02 µM)
Outline: as §1

Cell Line	relative viability (Lestaurtinib + Alpelisib; first compound 0.005 µM)	relative viability (Lestaurtinib + Alpelisib; first compound 0.01581 µM)	relative viability (Lestaurtinib + Alpelisib; first compound 0.05 µM)	relative viability (Lestaurtinib + Alpelisib; first compound 0.1581 µM)	relative viability (Lestaurtinib + Alpelisib; first compound 0.5 µM)	relative viability ([1]; first compound 0.2 µM)	relative viability ([1]; first compound 0.6325 µM)	relative viability ([1]; first compound 2 µM)	relative viability ([1]; first compound 6.325 µM)	relative viability ([1]; first compound 20 µM)	relative viability ([2]; first compound 0.005 µM)	relative viability ([2]; first compound 0.01581 µM)	relative viability ([2]; first compound 0.05 µM)	relative viability ([2]; first compound 0.1581 µM)	relative viability ([2]; first compound 0.5 µM)	relative viability ([3]; first compound 0.2 µM)	relative viability ([3]; first compound 0.6325 µM)	relative viability ([3]; first compound 2 µM)	relative viability ([3]; first compound 6.325 µM)	relative viability ([3]; first compound 20 µM)
NCI-H2347	1.1	1.22	0.91	0.573	0.606	0.44	0.429	0.478	0.448	0.426	0.587	0.651	0.57	0.512	0.496	0.273	0.271	0.27	0.26	0.28
201T	1.04	1.03	1.02	0.933	0.693	0.351	0.367	0.333	0.313	0.33	0.858	0.93	0.98	0.934	0.926	0.708	0.704	0.736	0.708	0.706
PC-14	0.973	1.01	0.465	0.602	0.471	0.145	0.166	0.136	0.131	0.142	0.244	0.223	0.237	0.207	0.0672	0.792	0.829	0.761	0.696	0.663
NCI-H1792	0.858	0.875	0.516	0.429	0.209	0.931	0.875	0.882	0.74	0.767	0.485	0.567	0.336	0.543	0.256	0.432	0.531	0.533	0.525	0.35
COR-L23	0.716	0.702		0.478	0.192	0.2	0.193	0.196	0.182	0.199	0.487	0.511	0.384	0.354	0.153	0.553	0.575	0.674	0.508	0.633
HOP-62	1.05	0.919	1.17	0.775	0.436	0.307	0.316	0.248	0.243	0.342	0.171	0.231	0.273	0.323	0.211	0.346	0.457	0.377	0.381	0.391
NCI-H1915	1.06	1.05	1.04	0.761	0.376	0.456	0.529	0.479	0.447	0.475	0.275	0.266	0.284	0.263	0.217	0.311	0.309	0.315	0.262	0.322
BEN	1.09	1.31	0.852	0.722	0.446	0.82	0.781	1.03	0.662	0.657	0.787	0.854	0.688	0.459	0.349	1.01	1.11	1.04	1.05	0.977
NCI-H1437	0.958	1.11	1.01	0.757	0.461	0.286	0.362	0.353	0.252	0.311	0.546	0.649	0.645	0.626	0.636	0.51	0.52	0.442	0.461	0.428
EMC-BAC-2	0.786	0.76	0.541	0.398	0.216	0.449	0.467	0.443	0.391	0.447	0.955	1.04	1.01	0.659	0.418	1	0.854	0.939	0.864	0.952
NCI-H647	0.972	0.87	0.267	0.231	0.14	0.19	0.158	0.204	0.158	0.213	0.415	0.404	0.337	0.311	0.173	0.464	0.49	0.407	0.467	0.447
LXF-289	1.05	1.09	0.695	0.91	0.178	0.911	0.839	0.889	0.858	0.852	0.312	0.428	0.374	0.364	0.315	0.707	0.693	0.675	0.626	0.613
LOU-NH91	0.757	0.666	0.623	0.472	0.416	0.331	0.401	0.316	0.37	0.375	0.818	0.816	0.804	0.679	0.659	0.777	0.775	0.781	0.75	0.806
NCI-H23	0.666	0.552	0.571	0.565	0.236	0.781	0.641	0.859	0.453	0.71	0.349	0.315	0.339	0.295	0.228	0.411	0.406	0.4	0.369	0.365
NCI-H1993	0.788	0.677	0.691	0.591	0.583	0.669	0.593	0.539	0.551	0.472	0.62	0.666	0.729	0.499	0.428	0.491	0.412	0.478	0.437	0.447
HCC-827	0.948	0.905	0.862	0.585	0.311	0.262	0.226	0.243	0.248	0.284	0.298	0.38	0.331	0.367	0.282	0.548	0.558	0.524	0.5	0.54
